Experimental findings from publication PMC7354613 (Viruses, 2020) are described below.

Where two headings read alike, the source gives them in different places.

In data set [1] the test system is OM-10.1 cells latently infected with HIV-1. The data set can be described thus: HIV activation dose response, Gag p24 ELISA of supernatant, OM-10.1 cells. In kind it is cell-based. As to conditions: Human immunodeficiency virus 1, 48 h, read-out: EC50 HIV activation OM-10.1. A general note: In an ELISA, binding on a coated surface is turned into a signal by an enzyme label.

The test system of data set [2] is U1 cells latently infected with HIV-1. Put plainly: HIV reactivation, Gag p24 ELISA of supernatant, U1 cells. Format: cell-based. Conditions: Human immunodeficiency virus 1, 48 h, read-out: EC50 HIV activation U1.
Data set [3] deals with ACH-2 cells latently infected with HIV-1. Put plainly: HIV reactivation, Gag p24 ELISA of supernatant, ACH-2 cells. In kind it is cell-based. As to conditions: Human immunodeficiency virus 1, ACH-2, 48 h, read-out: EC50 HIV activation ACH-2.
For another data set, the system named is J-Lat 10.6 cells. Put plainly: HIV reactivation, GFP expression by flow cytometry, J-Lat 10.6 cells. Conditions: for EC50: Human immunodeficiency virus 1, J-Lat 10.6, 48 h, read-out: EC50 HIV activation J-Lat 10.6; for GFP expression with respect to the PMA control set to 100: J-Lat 10.6, 48 h, 0.5 µM PKCa, 0.3 µM HDACi. In kind it is cell-based, HIV-1. In general terms: A flow cytometer gives signals particle by particle.

Another data set has as its system J-Lat A2 cells. The data set can be described thus: HIV reactivation, GFP expression by flow cytometry, J-Lat A2 cells. As to conditions: Human immunodeficiency virus 1, J-Lat A2, 48 h, read-out: EC50 HIV activation J-Lat A2. Format: cell-based, HIV-1.
Data set [4] in a line: Cytotoxicity, CellTiter-Blue, OM-10.1 cells. Conditions: human, 48 h treatment, mean ± SD, n = 3. In kind it is cell-based.
A short description of data set [5]: Cytotoxicity, CellTiter-Blue, U1 cells. In kind it is cell-based. Conditions: human, 48 h treatment, mean ± SD, n = 3. (In general: The colour change of resazurin is a common sign of viable cells or microbes.)
The nature of data set [6]: Cytotoxicity, CellTiter-Blue, ACH-2 cells. Format: cell-based. As to conditions: human; 48 h treatment; mean ± SD, n = 3.
A short description of data set [7]: Cytotoxicity, CellTiter-Blue, J-Lat 10.6 cells. In kind it is cell-based. Conditions: human, 48 h treatment, mean ± SD, n = 3.
Data set [8] can be described thus: Cytotoxicity, CellTiter-Blue, J-Lat A2 cells. Format: cell-based. As to conditions: human, 48 h treatment, mean ± SD, n = 3.
For data set [9], the system named is OM-10.1, U1, ACH-2, J-Lat 10.6 and J-Lat A2 cells. In kind it is cell-based, HIV-1. As to conditions: read-out: EC50 HIV activation.
In the next data set the test system is total CD4+ T-cells. The data set can be described thus: CD4 and CD3 surface expression by flow cytometry. In kind it is cell-based, human. Conditions: 24 h, 0.5 µM PKCa, 0.3 µM HDACi, untreated about 97%.
In data set [10] the test system is OM-10.1 cells latently infected with HIV-1. Put plainly: HIV RNA by real-time qRT-PCR, OM-10.1 cells. Format: cell-based. Conditions: 48 h.
For data set [11] the test system is unchanged. The data set can be described thus: Envelope gp120 expression by flow cytometry, OM-10.1 cells. In kind it is cell-based. As to conditions: live cells.
For data set [12], the system named is ACH-2 cells latently infected with HIV-1. The data set can be described thus: Envelope gp120 expression by flow cytometry, ACH-2 cells. In kind it is cell-based. As to conditions: live cells.
In data set [13] the test system is OM-10.1 cells latently infected with HIV-1. Put plainly: Gag p24 immunoblot with densitometry, OM-10.1 cells. Format: cell-based. Conditions: 48 h.
Setting [14] is: Human immunodeficiency virus 1, range over all the cell lines tested, 48 h.

Broadly, the EC50 is the concentration that produces a half-maximal response. A word on the CC50: it is the concentration at which the toxic effect on the cells reaches its halfway point. Low values mean greater toxicity to the cells, high ones lower toxicity to the cells. With `CC(C)C1C(=O)NC(CO)Cc2c[nH]c3cccc(c23)N1C` (single isomer, unassigned; (-)) [(-)-Indolactam V], the 50% effective concentration (EC50) in [1] is 90 ± 20 nM; in [2], 120 ± 20 nM; in data set [3], 180 ± 30 nM; in the data set on J-Lat 10.6 cells it was 200 ± 40 nM; with J-Lat A2 cells it was 320 ± 50 nM; in data set [9] (Human immunodeficiency virus 1, 48 h) it was 90 to 320 nM. In addition, the CC50 at 48 h in data set [4], in data set [5], in data set [6], in data set [7] and in data set [8] was above 8000 nM throughout. For the same compound, in the data set on total CD4+ T-cells, the “cells expressing CD4 (CD4 expression, R1)” value (from here on “cells expressing CD4”) is on record as 5.5%.
As to `CC(C)[C@H](C(=O)Nc1ccc(C(=O)NO)cc1)c1ccccc1` [AR-42], the EC50 in [1] was 530 ± 80 nM; in data set [2], 260 ± 100 nM; in data set [3], 240 ± 40 nM; with J-Lat 10.6 cells, 550 ± 20 nM; in the data set on J-Lat A2 cells, 440 ± 50 nM; in data set [9] (setting [14]) it was 240 to 550 nM. Besides, in the data set with J-Lat 10.6 cells, the “GFP expression with respect to the PMA control set to 100” value (shortened to “GFP expression”) stood at 10.2%. The CC50 at 48 h in data set [4] (OM-10.1 cells) was 400 ± 10 nM; in data set [5] it was around 8000 nM; in data set [7] it was 450 ± 20 nM; in [8], 530 ± 50 nM. The compound also gave a CC50 in [6] of 410 ± 10 nM.
Take `O=C(/C=C/c1cccc(S(=O)(=O)Nc2ccccc2)c1)NO` [Belinostat]: the EC50 is 880 ± 400 nM in [1]; 770 ± 10 nM in [2]; 440 ± 30 nM in [3]; 940 ± 30 nM in the data set with J-Lat 10.6 cells; 940 ± 50 nM in the data set with J-Lat A2 cells; 440 to 940 nM in data set [9] (setting [14]). Further, the CC50 at 48 h in [4] (OM-10.1 cells) was 2700 ± 200 nM; in data set [5] it was above 8000 nM; in data set [7], 1400 ± 60 nM; in data set [8] it was 1400 ± 20 nM. The half-maximal cytotoxic concentration (CC50) in [6] was 1100 ± 200 nM.
On to `CCN(CC)Cc1ccc2cc(COC(=O)Nc3ccc(C(=O)NO)cc3)ccc2c1` [Givinostat], for which the 50% effective concentration (EC50) in [1] amounted to 450 ± 130 nM; in [2], 630 ± 20 nM; in data set [3], 320 ± 40 nM; in the data set on J-Lat 10.6 cells, 880 ± 40 nM; with J-Lat A2 cells, 700 ± 50 nM. For the same compound, in the data set with J-Lat 10.6 cells, the “GFP expression” value was determined as 2.9%. Besides, the results for the CC50 in [4] and in [6] were 420 ± 10 nM and 630 ± 30 nM, respectively. Moreover, the CC50 at 48 h was around 4000 nM in data set [5], 930 ± 40 nM in data set [7] and 1200 ± 20 nM in [8].
As to `CN(C)Cc1c(C(=O)NCCOc2ccc(C(=O)NO)cc2)oc2ccccc12` [PCI-24781], the concentration for a half-maximal effect (EC50) in data set [1] turned out to be 350 ± 40 nM; in data set [2] it was 460 ± 30 nM; in [3] it was 370 ± 40 nM; in the data set on J-Lat 10.6 cells, 450 ± 20 nM; in the data set with J-Lat A2 cells, 380 ± 50 nM. For the same compound, the “GFP expression” value in the data set with J-Lat 10.6 cells was 6.5%. Also, the results for the cytotoxic concentration (CC50) in data set [4] and in data set [6] were 400 ± 20 nM and 310 ± 20 nM, respectively. Also, the 50% cytotoxic concentration (CC50) at 48 h in data set [5] is around 8000 nM; in data set [7] it was 400 ± 20 nM; in [8] it was 540 ± 30 nM.
As to `CCCCCCCCCCCCCC(=O)O[C@@H]1[C@@H](C)[C@@]2(O)[C@@H](C=C(CO)C[C@]3(O)C(=O)C(C)=C[C@@H]23)[C@@H]2C(C)(C)[C@]12OC(C)=O` [PMA, phorbol 12-myristate 13-acetate], in data set [10] (cell-associated RNA), the “HIV-1 RNA expression, fold with respect to the untreated control” value is “about 10 fold”. In addition, the “cells expressing gp120” value in data set [11] (24 h) came to 50%; in [11] (48 h) it was 24%; in [12] (24 h), 46%; in [12] (48 h), 43%.
Take `CC(=O)O[C@@]12C[C@@H](C)[C@@]3(O)[C@@H](C=C(CO)C[C@]4(O)C(=O)C(C)=C[C@@H]34)[C@@H]1C2(C)C` [Prostratin]: the EC50 in data set [1] was 410 ± 30 nM; in data set [2] it was 300 ± 30 nM; in [3], 310 ± 70 nM; in the data set with J-Lat 10.6 cells it was 680 ± 10 nM; with J-Lat A2 cells, 870 ± 30 nM; in data set [9] (setting [14]), 300 to 870 nM. The “GFP expression” value in the data set with J-Lat 10.6 cells stood at 37%. The CC50 in [4] and in data set [6] was above 8000 nM throughout. Moreover, the half-maximal cytotoxic concentration (CC50) at 48 h in data set [5], in data set [7] and in data set [8] was above 8000 nM in each case. Further, the “cells expressing CD4” value with total CD4+ T-cells was “about 53%”.
On to `CC(C)[C@H]1C(=O)N[C@H](CO)Cc2cc(NC(=O)/C=C/C=C/c3ccc(C(F)(F)F)cc3)ccc2N1C` [TPPB], for which the EC50 in data set [1] was determined as 130 ± 10 nM; in [2], 210 ± 10 nM; in data set [3] it was 70 ± 10 nM; in the data set on J-Lat 10.6 cells, 510 ± 80 nM; in the data set with J-Lat A2 cells, 490 ± 30 nM. Further, the CC50 in data set [4] and in data set [6] was above 8000 nM each time. Also, the CC50 at 48 h in data set [5], in data set [7] and in data set [8] was above 8000 nM each time. Also, the “cells expressing CD4” value in the data set on total CD4+ T-cells is given as 18%.
In the case of TNFα, the “HIV-1 RNA expression, fold with respect to the untreated control” value in data set [10] (cell-associated RNA) worked out at 300 fold. Further, the “HIV-1 RNA expression, fold with respect to the PMA-treated control” value in data set [10] (cell-associated RNA, 0.5 µM PKCa, 0.3 µM HDACi) is “about 30 fold”. Besides, in data set [10] (culture supernatant), the “extracellular viral RNA, fold with respect to PMA-treated control” value was determined as 1.5 fold. Further, in data set [13] (immunoblot densitometry), the “cell-associated Gag p24, fold compared to treatment with PMA” value is on record as 12–30 fold. For the same compound, the “extracellular p24, fold with respect to PMA-treated control” value in data set [13] (viral lysate immunoblot) turned out to be 1.5 fold. The “cells expressing gp120” value was determined as 70% in [11] (24 h) and 42% in [11] (48 h).
